Consider 1 compound from patent publication EP4692072A1, “PHOTOCHROMIC COMPOUND, PROPARGYL ALCOHOL COMPOUND, CURABLE COMPOSITION, OPTICAL ARTICLE, LENS, AND SPECTACLES” (TOKUYAMA CORPORATION, priority 2023, dated 2024).

Holding throughout (assay type): physicochemical
The nature of series [1]: Photochromic properties of photochromic laminate (plastic lens) prepared by coating method. As to conditions: 40 µm photochromic layer on thiourethane lens, 0.25 mmol compound per 100 g monomers, after color development. From the text: (§1) First, the photochromic compound obtained in Example 1, a photoinitiator, and a polymerizable compound were mixed to obtain a curable composition.
(§2) Polyethylene glycol dimethacrylate (average molecular weight: 736): 42 parts by mass • Polyethylene glycol dimethacrylate (average molecular weight: 536): 12 parts by mass • Trimethylolpropane trimethacrylate: 38 parts by mass γ-methacryloyloxypropyl trimethoxysilane: 2 parts by mass Glycidyl methacrylate: 1 part by mass
(§3) Note that the photochromic compound was added to the curable composition so that the amount of the photochromic compound was 0.25 mmol based on 100 g of the total amount of the radical-polymerizable monomers.
(§4) Phenylbis(2,4,6-trimethylbenzoyl)phosphine oxide (photoinitiator: Omnirad 819): 0.3 parts by mass Ethylene bis(oxyethylene) bis[3-(5-tert-butyl-4-hydroxy-m-tolyl)propionate] (stabilizer, Irganox 245): 1 part by mass Bis(1,2,2,6,6-pentamethyl-4-piperidyl) sebacate: 3 parts by mass Leveling agent (L7001) manufactured by Dow Corning Toray Co.,Ltd.: 0.1 part by mass
(§5) First, a thiourethane-based plastic lens having a central thickness of 2 mm and a refractive index of 1.60 was prepared as the optical substrate. Note that this thiourethane-based plastic lens was pre-treated by alkaline etching with a 10% sodium hydroxide aqueous solution at 50°C for 5 minutes, followed by sufficient washing with distilled water.
(§6) A surface of the above-described plastic lens was coated with a moisture-curable primer (product name: TR-SC-P, manufactured by Tokuyama Corporation) at a rotation frequency of 70 rpm for 15 seconds, followed by 1000 rpm for 10 seconds, using a spin coater (1H-DX2, manufactured by MIKASA CO., LTD), Subsequently, about 2 g of the photochromic curable composition obtained above was spin-coated at a rotation frequency of 60 rpm for 40 seconds, followed by 600 rpm for 10 to 20 seconds, to form a photochromic coating layer with a film thickness of 40 µm.
(§7) The lens with the surface coated with the photochromic curable composition (photochromic coating layer) was irradiated with light using a metal halide lamp with an output power of 200 mW/cm^2 in a nitrogen gas atmosphere for 90 seconds to cure the coating film. Subsequently, the lens was further heated at 110°C for 1 hour to prepare a photochromic laminate having a photochromic layer.
In the same manner as in Example 26, photochromic laminates were prepared using the photochromic compounds obtained in Examples 2 to 25.
(§8) • [1] Maximum Absorption Wavelength (λmax): The maximum absorption wavelength after color development, measured using a spectrophotometer (instantaneous multichannel photodetector MCPD3000) manufactured by Otsuka Electronics Co., Ltd. was used as an indicator for the color tone during the color development. • [2] 23°C Color Optical Density (A23): A difference between an absorbancy measured after light irradiation at 23°C for 300 seconds {ε(300)} and an absorbancy without light irradiation ε(0) at the maximum absorption wavelength was used as an indicator for the color optical density. […] 23°C color fading half-life [τ1/2 (sec.)]: A time required for the absorbancy of the sample at the maximum absorption wavelength to decrease to 1/2 of {ε(300)-ε(0)} when the light irradiation was terminated after the light irradiation at 23°C for 300 seconds, was used as an indicator for the color fading speed. The shorter this time, the higher the color fading speed. • [4] Residual rate (A120/A0×100): The obtained photochromic plastic lens was subjected to accelerated deterioration using a xenon weather meter X25 manufactured by Suga Test Instruments Co., Ltd. for 120 hours. Subsequently, the color optical density was evaluated before and after the test, then a color optical density before the test (A0) and a color optical density after the test (A120) were measured, and a ratio (A120/A0) was defined as a residual rate. The residual rate was used as an indicator for a color developing durability. […]

Series [2] is described as follows: Accelerated deterioration (xenon weather meter X25, 120 hours) of photochromic laminate prepared by coating method. As to conditions: 0.25 mmol per 100 g monomers, A120/A0×100 after 120 hours xenon weather meter.
From the text: as §1, §2, §3, §4, §5, §6, §7
as §8, with “durability. The higher the residual rate, the higher the color developing durability.” for “durability.”

Series [3] is described as follows: Accelerated deterioration (xenon weather meter X25, 120 hours) of photochromic cured product prepared by kneading method. The note with it: 1 mm cured product, 0.106 mmol per 100 g monomer, A120/A0×100 after 120 hours xenon weather meter. On the procedure: (§9) • [1] Maximum Absorption Wavelength (λmax): The maximum absorption wavelength after color development, measured using a spectrophotometer (instantaneous multichannel photodetector MCPD3000) manufactured by Otsuka Electronics Co., Ltd. was used as an indicator for the color tone during the color development. • [2] 23°C Color Optical Density (A23): A difference between an absorbancy measured after light irradiation at 23°C for 300 seconds {ε(300)} and an absorbancy without light irradiation ε(0) at the maximum absorption wavelength was used as an indicator for the color optical density. […] 23°C color fading half-life [τ1/2 (sec.)]: A time required for the absorbancy of the sample at the maximum absorption wavelength to decrease to 1/2 of {ε(300)-ε(0)} when the light irradiation was terminated after the light irradiation at 23°C for 300 seconds, was used as an indicator for the color fading speed. The shorter this time, the higher the color fading speed. • [4] Residual rate (A120/A0×100): The obtained photochromic plastic lens was subjected to accelerated deterioration using a xenon weather meter X25 manufactured by Suga Test Instruments Co., Ltd. for 120 hours. Subsequently, the color optical density was evaluated before and after the test, then a color optical density before the test (A0) and a color optical density after the test (A120) were measured, and a ratio (A120/A0) was defined as a residual rate. The residual rate was used as an indicator for a color developing durability. The higher the residual rate, the higher the color developing durability. The results of Examples 26, 50, and Comparative Examples 1 to 8 are summarized in Table 1, and the results of Examples 27 to 49 are summarized in Tables 2 and 3.
(§10) First, the photochromic compound obtained in Example 1, additives, and a polymerizable compound were mixed to obtain a curable composition.
(§11) As the polymerizable compound, a combination of the following polymerizable monomers was used. • 1,3-bis(isocyanatomethyl)cyclohexane: 36.7 parts by mass Pentaerythritol tetrakis(3-mercaptopropionate): 39.4 parts by mass • Polyoxyethylene polyoxypropylene lauryl ether (Wonder Surf 140 manufactured by Aoki Oil Industrial Co., Ltd.): 17.4 parts by mass • 1-decanethiol: 2.8 parts by mass • RX-1 adjusted according to the method described in Patent Document 13: 3.8 parts by mass
(§12) Note that the photochromic compound was added to the curable composition so that the amount of the photochromic compound was 0.106 mmol based on 100 g of the total amount of the polymerizable monomer. The following additives were used: Dimethyltin dichloride • : 0.05 part by mass • Irganox 245: 0.1 part by mass • 2-ethylhexyl 4-methoxycinnamate: 0.6 part by mass
(§13) The prepared curable composition was thoroughly defoamed, then injected into a glass mold having a 1 mm gap, and polymerized by cast polymerization. The polymerization was carried out in an air furnace while gradually raising the temperature from 27°C to 120°C over 18 hours. After the polymerization, the cured product was removed from the glass mold to obtain a photochromic cured product having a thickness of 1 mm. The obtained photochromic cured product was evaluated in the same manner as in Example 26.
(§14) (Examples 85 to 99, and Comparative Example 14 to 18) Photochromic cured products were prepared using photochromic compounds presented in Tables 6 and 7 in the same manner as in Example 84. The results of Examples 84 and 85 and Comparative Examples 14 to 18 are summarized in Table 6, and the results of Examples 86 to 99 are summarized in Table 7.

Series [4] in a line: Photochromic properties of photochromic cured product prepared by kneading method. The note with it: 0.106 mmol per 100 g monomer. On the procedure:
as §9, §10, §11, §12, §13, §14

Each structure is given as a SMILES string.

For the compound `CCC1(CC)CCC2(CC1)c1ccccc1-c1c2c2c(c3cc(OC)c(N(c4ccccc4)c4ccccc4)cc13)OC(c1ccc(C)cc1)(c1ccc(N(C)c3ccc(C)cc3)cc1)C=C2` (centres unmarked) [Example 2], the Maximum absorption wavelength is 522 nm in series [1] and 526 nm in series [4] (1 mm thiourethane cured product, after color development). For the same compound, the Residual rate was found to be 67% in series [2] and 72% in series [3]. Besides, in series [4] (1 mm cured product, 23°C color optical density ε(300)-ε(0)), the A23 was 1.41 -.
